The subject of data set [1] is SARS-CoV-2 virus (Novel coronavirus βCoV/KOR/KCDC03/2020 strain). Nature of the data set: Anti-novel coronavirus activity in Vero cells (immunofluorescence, high-content imaging). It is filed as cell-based. To be noted: Severe acute respiratory syndrome coronavirus 2, wild-type novel coronavirus, MOI=0.0125, 24 hours.
Data set [2] is described as follows: in vitro. To be noted: African green monkey.
Data set [3] is described as follows: Cytotoxicity in the cytopathic model, without virus infection (CellTiter Glo). To be noted: human. A general note: Cytopathic effects are the visible damage that an infection or toxin causes in cultured cells.
Data set [4] deals with coronavirus HCoV OC43. Nature of the data set: In vitro anti-coronavirus activity by cytopathic model (CPE, CellTiter Glo). It is filed as cell-based. To be noted: HCoV OC43 100 TCID50/well, MRC5 cells, 5 days. As to the method:
MRC5 cells and coronavirus HCoV OC43 were purchased from ATCC.
MRC5 cells were cultured in MEM (Sigma) medium supplemented with 10% fetal bovine serum (Excell), 1% double antibody (Hyclone), 1%L-glutamine (Gibco) and 1% non-essential amino acids (Gibco). MEM (Sigma) medium supplemented with 5% fetal bovine serum (Excell), 1% double antibody (Hyclone), 1% L-glutamine (Gibco) and 1% non-essential amino acid (Gibco) was used as the experimental culture medium.
Cells were inoculated into a 96 microwell plate at a certain density (Table 6) and cultured overnight in an incubator at 5% CO2 and 37° C. On the second day, the compound was added after doubling dilution (8 concentration points, duplicate wells), with 50 µL per well. Then the diluted virus was added to the cells at 100 TCID50 per well, 50 µL per well. Cell control (cell without compound treatment or virus infection), virus control (cell infected with virus without compound treatment) and culture medium control (only culture medium) were set. The final volume of the culture medium in this experiment was 200 µL, and the final concentration of DMSO in the culture medium was 0.5%. Cells were cultured in a 5% CO2, 33° C. incubator for 5 days. Cell viability was detected using the cell viability assay kit CellTiter Glo (Promega). Cytotoxicity experiments were performed under the same conditions as antiviral experiments, but without virus infection.
The antiviral activity and cytotoxicity of the compound were represented by the inhibition rate (%) and cell viability (%) of the compound on the cytopathic effect caused by the virus at different concentrations, respectively. The calculation formula is as follows: […]
GraphPad Prism was used to perform nonlinear fitting analysis on the inhibition rate and cell viability of the compound, and the half effective concentration (EC50) and half cytotoxic concentration (CC50) of the compound were calculated.

In data set [5] the target is SARS-CoV-2 Mpro (Severe acute respiratory syndrome coronavirus 2 (2019-nCoV) (SARS-CoV-2), UniProt P0DTD1). Briefly: In vitro anti-novel coronavirus Mpro protease activity (fluorescent substrate cleavage). In kind it is biochemical. As to the method: The compound was dissolved in DMSO, and diluted in a 3-fold gradient with Echo655 according to the concentration requirements to 10 concentration points, and duplicate tests were set at each concentration, and the diluted solution was added to a 384-well plate. Mpro protein and substrate were diluted with test buffer (100 mM NaCl, 20 mM Tris-HCl, 1 mM EDTA), and Mpro protein was added to the 384-well test plate, incubated with the compound for 30 min at room temperature, and then the substrate was added thereto, and the test concentration of Mpro protein was 25 nM, and the test concentration of substrate was 25 µM. After incubating for 60 minutes in a 30° C. constant temperature incubator, the fluorescence signal value of Ex/Em=340 nm/490 nm was detected by microplate reader. At the same time, the background well containing the substrate and compound but not containing Mpro protein was detected as control.

On the set-up of data set [6]: species or system C57BL/6J male mice. To be noted: mouse, in vivo. Here is the method:
In this study, C57BL/6J male mice were selected as test animals, and LC/MS/MS method was used to quantitatively measure the plasma concentration of the test compound 11 at different time points after oral administration and injection in mice, so as to evaluate the pharmacokinetic characteristics of the test drug in mice.
The test compound dissolved in 30% PEG400+70% normal saline was administered to mice (overnight fasting, 6-8 weeks old) by intragastric administration. 25 µL of blood was collected at 0.083, 0.25, 0.5, 1, 2, 4, 8, 12 and 24 hours after administration, respectively, and placed in commercial anticoagulation tubes pre-added with EDTA-K2, centrifuged at 4° C., 3200 g for 10 min to obtain plasma, and after the plasma sample was treated, the plasma concentration was determined by LC-MS/MS method.

Data set [7] in a line: Tissue distribution test in rats (plasma and lung, with Ritonavir). In kind it is in vivo, SD male rats. To be noted: 30 mpk p.o. with Ritonavir 10 mpk. Here is the method:
In this study, SD male rats were selected as test animals, and the drug concentrations of test compounds in plasma and lungs of rats at different time points were quantitatively measured by LC/MS/MS method to evaluate the pharmacokinetic characteristics of test drugs in rats.
Firstly, 10 mpk of Ritonavir was administered to rats by intragastric administration at -12 h and 0 h, and 30 mpk of the test compound was dissolved in 10% Solutol + 30% PEG 400 + 2% Tween 80+H2O 58% solution and administered to rats by intragastric administration (overnight fasting). 40 µL of blood was collected from the saphenous vein of rats at 0.25, 1 and 6 hours after administration, placed in an anticoagulant tube added with EDTA-K2, centrifuged at 4° C., 3200 g for 10 min to obtain plasma, and some animals were killed at 0.25, 1 and 6 hours respectively to collect lung tissue. After the plasma samples were treated, the plasma concentration was determined by LC-MS/MS method.

Details of data set [8]: species or system C57BL/6J male mice. To be noted: mouse, in vivo, po, 10 mg/kg. As to the method: In this study, C57BL/6J male mice were selected as test animals, and the LC/MS/MS method was used to quantitatively measure the plasma concentrations of mice in combination with Ritonavir at different time points, so as to evaluate the pharmacokinetic characteristics of the test drug in mice.
Firstly, 10 mpk of Ritonavir was administered to mice by intragastric administration at -12 h and 0 h, and then the test compound was dissolved in 30% PEG400+70% normal saline solution and administered to mice by intragastric administration (overnight fasting, 6 to 8 weeks old). 25 µL of blood was collected at 0.083, 0.25, 0.5, 1, 2, 4, 8, 12 and 24 hours after administration to animals, placed in a commercial anticoagulant tube pre-added with EDTA-K2, and centrifuged at 4° C., 3200 g for 10 min to obtain plasma. After the plasma samples were treated, the plasma concentration was determined by LC-MS/MS method.

The subject of data set [9] is MRC5 cells.
In data set [10] the test system is Vero cells. To be noted: 24 hours.
Setting [11] is: 25 nM Mpro protein, 25 µM substrate, read-out: IC50.

Read-outs that look alike come from different tables or passages of the source.

On to `CC1C[C@H]2C[C@@H]1N(C(=O)[C@@H](NC(=O)C(F)(F)F)C(C)(C)C)[C@@H]2C(=O)N[C@H](C#N)C[C@@H]1CCNC1=O` (stereo partly shown) [Compound 5], for which the EC50 – broadly, the concentration giving half of the maximal effect – was determined as 20 nM in data set [1] and 205 nM in data set [4] (Betacoronavirus 1, 120 h). For the same compound, in data set [2], the CC50 was > 5000 nM. Besides, in data set [3], the CC50 at 5 days was > 10000 nM.
In the case of `CC(C)(C)[C@H](NC(=O)C(F)(F)F)C(=O)N1[C@H]2C[C@@H]([C@H]1C(=O)N[C@H](C#N)C[C@@H]1CCNC1=O)C(F)(F)C2` [Compound 6], in data set [5], it took 135 nM to reach half-maximal inhibition (IC50).
`N#C[C@H](C[C@@H]1CCNC1=O)NC(=O)[C@@H]1[C@H]2CC[C@H](C2)N1C(=O)[C@@H](NC(=O)C(F)(F)F)C12CC3CC(CC(C3)C1)C2` [Compound 3]: the EC50 in data set [1] was 35 nM; in data set [4] (Betacoronavirus 1, 120 h), 62 nM. In data set [2], the CC50 was > 5000 nM. Further, in [3], the CC50 at 5 days was > 10000 nM. Further, in data set [5], the IC50 – broadly, the midpoint of a concentration-inhibition curve – came to 21 nM.
On to `N#C[C@H](C[C@@H]1CCNC1=O)NC(=O)[C@@H]1[C@H]2CC[C@H](C2)N1C(=O)[C@@H](NC(=O)C(F)(F)F)C12CCC(CC1)CC2` [Compound 4], for which the EC50 in data set [1] is 30 nM; in data set [4] (Betacoronavirus 1, 120 h), 141 nM. Further, the CC50 in [2] is > 5000 nM. Moreover, the CC50 at 5 days in [3] is > 10000 nM. This compound displayed an IC50 in data set [5] of 53 nM.
Take `Cc1ccc(CC(=O)N[C@H](C(=O)N2[C@@H]3CC[C@@H](C3)[C@H]2C(=O)N[C@H](C#N)C[C@@H]2CCNC2=O)C23CC4CC(CC(C4)C2)C3)cc1` [Compound 13]: the half-maximal inhibitory concentration (IC50) in [5] (setting [11]) worked out at 75 nM.
Regarding `CC1([C@H](NC(=O)C(F)(F)F)C(=O)N2[C@@H]3CC[C@@H](C3)[C@H]2C(=O)N[C@H](C#N)C[C@@H]2CCNC2=O)CCCCC1` [Compound 7], inhibition in data set [5] was half-maximal at 62 nM (IC50).
Regarding `CC(C)(C)[C@H](NC(=O)C(F)(F)F)C(=O)N1[C@H]2C[C@@H]([C@H]1C(=O)N[C@H](C#N)C[C@@H]1CCNC1=O)C1(CC1)C2` [Compound 11], in data set [6] (iv, 3 mg/kg), the AUC0-last worked out at 1.447 µM·h; the CL is 68.5 mL/min/kg; the T½ worked out at 12 min; the volume of distribution (Vdss) – broadly, a proportionality between amount in the body and measured concentration, not a real space – turned out to be 0.9 L/kg. In [6] (po, 10 mg/kg), the AUC0-last was determined as 1.519 µM·h; the highest level (Cmax) was 1.85 µM; the Tmax (as a rule, the time from dosing to the highest level) turned out to be 15 min. The “Ratio lung/plasma of AUC(0-6 h)” value in [7] is reported as 2.6/1. The Ratio lung/plasma in data set [7] (0.25 h) is listed as 5.5/1. In addition, the Ratio lung/plasma in data set [7] (1 h) was 3.2/1. Besides, the Ratio lung/plasma in data set [7] (6 h) was 1.6/1. For the same compound, in data set [8], the AUC0-last was 28.683 µM·h; the Cmax (as a rule, the highest concentration seen after dosing) was found to be 10.1 µM; the Tmax amounted to 30 min. Besides, the CC50 in data set [9] was > 10000 nM. Further, in data set [5] (setting [11]), the IC50 stood at 5.4 nM. The CC50 in data set [10] was > 5000 nM. In addition, the concentration for a half-maximal effect (EC50) in data set [4] was determined as 3.5 nM.
Take `CC1C[C@@H]2C[C@H]1[C@@H](C(=O)N[C@H](C#N)C[C@@H]1CCNC1=O)N2C(=O)[C@@H](NC(=O)C(F)(F)F)C12CC3CC(CC(C3)C1)C2` (stereo partly shown) [Compound 12]: in data set [5] (setting [11]), the IC50 was 17 nM.
On the same count and under the same terms, as for `CC(C)(C)[C@H](NC(=O)C(F)(F)F)C(=O)N1[C@H]2C[C@@H]([C@H]1C(=O)N[C@H](C#N)C[C@@H]1CCNC1=O)C(F)(F)C2` [Compound 10], the figure is 17 nM.

Source of the values: patent US20230312571A1, “RING-MODIFIED PROLINE SHORT PEPTIDE COMPOUND AND USE THEREOF” (priority 2021, published 2023).
